# Results from US7419776B1, “Method of reducing pathogen load” (priority 1999, dated 2008).
# Test system: Candida albicans
# Test: Fungal load: patient with severe candidiasis (present-tense example)
# Assay type: in vivo, human
# Details: two weeks, before YG Product
# Experimental: The following present-tense examples are intended to illustrate and summarize the teachings of the preceding examples that describe actual clinical data with over 100 AIDS and ARC patients.
# The candidiasis clears. A dose is administered by one of the following routes: intradermally, subcutaneously, orally, transmucosally, sublingually, or transdermally.
compound,measurement,value
OC(Cn1cncn1)(Cn1cncn1)c1ccc(F)cc1F [Fluconazole],effect of antifungal treatment alone on severe candidiasis,without effect
